Experimental data published in US20120197004A1, “NOVEL ANTI-MICROBIAL PEPTIDOMIMETIC COMPOUNDS AND METHODS TO CALCULATE ANTI-MICROBIAL ACTIVITY” (priority 2006, published 2012).
In brackets after ≈: the same amount, converted by molar mass. Like-named read-outs stand apart in the source and are kept apart here. Where a SMILES comes first, the peptide text is derived from it. [ ]: non-standard residue; d: D form. ξ: configuration not given here. Oic = O=C(O)[C@@H]1C[C@@H]2CCCC[C@@H]2N1; Tic = O=C(O)[C@@H]1Cc2ccccc2CN1; ξTic = O=C(O)C1Cc2ccccc2CN1; ξOic = O=C(O)C1CC2CCCCC2N1; GABA = NCCCC(=O)O

Columns and labels:
[1] = system: Plasmodium falciparum W2 (CDC Indochina III chloroquine, quinine, pyrimethamine and sulfadoxine-resistant)
[2] = system: Plasmodium falciparum D6 (CDC Sierra Leone, mefloquine resistant)
[3] = system: Salmonella typhimurium (ATCC 13311); details: for MIC Salmonella typhimurium: ATCC 13311; for p(MIC) Salmonella typhimurium: -log(MIC)
[4] = system: Staphylococcus aureus Methicillin/Gentamicin/Tetracycline Resistant (ATCC 33592); details: for p(MIC) Staphylococcus aureus ME/GM/TC resistant: -log(MIC); for Minimum Inhibitory Concentration Staphylococcus aureus ME/GM/TC resistant: in vitro MIC, tested at 100, 30, 10, 3, 1, 0.3 and 0.1 μM in 1% DMSO; for Actual Bioactivity: p(MIC) used in Staphylococcus aureus QSAR model
red blood cells [5] = details: 100 μM
[6] = system: Mycobacterium ranae (ATCC 110)
[7] = system: Bacillus subtillis (ATCC 43223); details: for MIC Bacillus Subtillis: ATCC 43223
red blood cells [8] = experiment: Hemolytic studies
[9] = Metabolic stability, dog liver microsomes
[10] = Metabolic stability, rat liver microsomes
[11] = Metabolic stability, human liver microsomes; details: for % remaining at time T, Human Liver: 0.5 mg/mL microsomes
[12] = Metabolic stability, mouse liver microsomes
[13] = Metabolic stability, monkey liver microsomes
[14] = Minimal Inhibitory Concentration, tested at 100-0.1 in 1% DMSO
[15] = liver microsomes, 1 μM, T = 60 min

CC(C)C[C@H](NC(=O)CNC(=O)[C@@H]1C[C@@H]2CCCC[C@@H]2N1C(=O)[C@@H]1Cc2ccccc2CN1C(=O)[C@H](CC(C)C)NC(=O)CNC(=O)[C@@H]1C[C@@H]2CCCC[C@@H]2N1C(=O)[C@@H]1Cc2ccccc2CN1C(=O)[C@H](CCCCN)NC(=O)CNC(=O)[C@@H]1C[C@@H]2CCCC[C@@H]2N1C(=O)[C@@H]1Cc2ccccc2CN1C(=O)[C@H](CC(C)C)NC(=O)CNC(=O)[C@@H]1C[C@@H]2CCCC[C@@H]2N1C(=O)[C@@H]1Cc2ccccc2CN1C(=O)[C@H](CCCCN)NC(=O)CNC(=O)[C@@H]1C[C@@H]2CCCC[C@@H]2N1C(=O)[C@@H]1Cc2ccccc2CN1C(=O)[C@H](CC(C)C)NC(=O)CNC(=O)[C@@H]1C[C@@H]2CCCC[C@@H]2N1C(=O)[C@@H]1Cc2ccccc2CN1C(=O)[C@H](CC(C)C)NC(=O)CNC(=O)[C@H](CCCCN)NC(=O)CN)C(=O)N[C@@H](CCCNC(=N)N)C(N)=O [WRFK-3, NH2-GKGL-Tic-Oic-GL-Tic-Oic-GK-Tic-Oic-GL-Tic-Oic-GK-Tic-Oic-GL-Tic-Oic-GLR-CONH2] (H-GKGL[Tic][Oic]GL[Tic][Oic]GK[Tic][Oic]GL[Tic][Oic]GK[Tic][Oic]GL[Tic][Oic]GLR-NH2)
IC50 * W2 [1]: 7.2 µg/mL (≈ 2.09 µM) | IC50 * D6 [2]: 5.2 µg/mL (≈ 1.51 µM) | Minimum Inhibitory Concentration Salmonella typhimurium ([3]; in vitro MIC, tested at 100, 30, 10, 3, 1, 0.3 and 0.1 μM in 1% DMSO): not active | p(MIC) Staphylococcus aureus ME/GM/TC resistant [4]: 4.00 | MIC Staphylococcus aureus ME/GM/TC resistant [4, 14]: 0.1 mM (≈ 0.344 mg/mL) | Minimum Inhibitory Concentration Staphylococcus aureus ME/GM/TC resistant [4]: 100 µM | Actual Bioactivity [4]: 4.000 | % hemolysis 100/25 μM (first value) (red blood cells [5]): 100%

CC(=O)NCCCC(=O)N[C@@H](Cc1ccccc1)C(=O)N1Cc2ccccc2CC1C(=O)N1C(C(=O)NCCCC(=O)N[C@@H](CCCCN)C(=O)N2Cc3ccccc3CC2C(=O)N2C(C(=O)NCCCC(=O)N[C@@H](Cc3ccccc3)C(=O)N3Cc4ccccc4CC3C(=O)N3C(C(=O)NCCCC(=O)N[C@@H](CCCCN)C(=O)N4Cc5ccccc5CC4C(=O)N[C@@H](CCCCN)C(=O)N[C@@H](CCCCN)C(=O)N[C@@H](CCCCN)C(=O)N[C@@H](CCCCN)C(N)=O)CC4CCCCC43)CC3CCCCC32)CC2CCCCC21 (stereo partly drawn) [FKAB-1Gd, Ac-Gaba-F-Tic-Oic-Gaba-K-Tic-Oic-Gaba-F-Tic-Oic-Gaba-K-Tic-KKKK-CONH2] (Ac-[GABA]F[ξTic][ξOic][GABA]K[ξTic][ξOic][GABA]F[ξTic][ξOic][GABA]K[ξTic]KKKK-NH2)
MIC Salmonella typhimurium [3]: 0.01 mM (≈ 0.0255 mg/mL) | MIC Staphylococcus aureus ME/GM/TC resistant ([4]; ATCC 33592): 0.1 mM (≈ 0.255 mg/mL) | MIC Mycobacterium ranae ([6]; ATCC 110): 0.01 mM (≈ 0.0255 mg/mL) | Minimum Inhibitory Concentration Mycobacterium ranae ([6]; ATCC 110): 10 µM | MIC Bacillus Subtillis [7]: 0.001 mM (≈ 0.00255 mg/mL) | % hemolysis 100/25 μM (first value) (red blood cells [8]; 100 μM): 10.8%/ | % remaining, Dog Liver T = 15 ([9]; T = 15 min, 1 μM, 0.5 mg/mL microsomes): 35% | remaining at 0.5 h, 1 μM ([9]; dog, microsomes, pH 7.4): 34% | remaining at 1 h, 1 μM ([9]; dog, microsomes, pH 7.4): 55% | metabolic stability T = 60 min dog [9, 15]: High | metabolic stability T = 60 min rat [10, 15]: high | remaining at 0.25 h, 1 μM ([10]; rat, microsomes, pH 7.4): 67% | remaining at 0.5 h, 1 μM ([10]; rat, microsomes, pH 7.4): 78% | remaining at 1 h, 1 μM ([10]; rat, microsomes, pH 7.4): 83% | remaining at 0.25 h, 1 μM ([11]; human, microsomes, pH 7.4): 106% | metabolic stability T = 60 min human [11, 15]: high | % remaining at time T, Human Liver ([11]; second human column (T = 30 min, head not given), 1 μM): 94% | % remaining at time T, Human Liver ([11]; third human column (T = 60 min, head not given), 1 μM): 114% | metabolic stability T = 60 min mouse [12, 15]: very low | remaining at 0.25 h, 1 μM ([12]; mouse, microsomes, pH 7.4): 90% | remaining at 0.5 h, 1 μM ([12]; mouse, microsomes, pH 7.4): 7% | remaining at 1 h, 1 μM ([12]; mouse, microsomes, pH 7.4): 9% | metabolic stability T = 60 min monkey [13, 15]: high | remaining at 0.25 h, 1 μM ([13]; monkey, microsomes, pH 7.4): 16% | remaining at 0.5 h, 1 μM ([13]; monkey, microsomes, pH 7.4): 25% | remaining at 1 h, 1 μM ([13]; monkey, microsomes, pH 7.4): 76%

CC(C)C[C@H](NC(=O)CNC(=O)[C@H](CCCCN)NC(=O)CN)C(=O)N1Cc2ccccc2CC1C(=O)N1C(C(=O)NCC(=O)N[C@@H](CCCCN)C(=O)N2Cc3ccccc3CC2C(=O)N2C(C(=O)NCC(=O)N[C@@H](Cc3ccccc3)C(=O)N3Cc4ccccc4CC3C(=O)N3C(C(=O)NCC(=O)N[C@@H](CCCCN)C(=O)N4Cc5ccccc5CC4C(=O)N4C(C(=O)NCC(=O)N[C@@H](Cc5ccccc5)C(=O)N5Cc6ccccc6CC5C(=O)N5C(C(=O)NCC(=O)N[C@@H](CCCCN)C(=O)N6Cc7ccccc7CC6C(=O)N6C(C(=O)NCC(=O)N[C@@H](CCCCN)C(=O)N[C@@H](CCCNC(=N)N)C(N)=O)CC7CCCCC76)CC6CCCCC65)CC5CCCCC54)CC4CCCCC43)CC3CCCCC32)CC2CCCCC21 (stereo partly drawn) [WRFK-1, NH2-GKGL-Tic-Oic-GK-Tic-Oic-GF-Tic-Oic-GK-Tic-Oic-GF-Tic-Oic-GK-Tic-Oic-GKR-CONH2] (H-GKGL[ξTic][ξOic]GK[ξTic][ξOic]GF[ξTic][ξOic]GK[ξTic][ξOic]GF[ξTic][ξOic]GK[ξTic][ξOic]GKR-NH2)
IC50 * W2 [1]: 5.7 µg/mL (≈ 1.61 µM) | IC50 * D6 [2]: 7.3 µg/mL (≈ 2.06 µM) | MIC Staphylococcus aureus ME/GM/TC resistant [4, 14]: 0.01 mM (≈ 0.0354 mg/mL) | Minimum Inhibitory Concentration Staphylococcus aureus ME/GM/TC resistant [4]: 10 µM

CC(C)C[C@H](NC(=O)CNC(=O)[C@H](CCCCN)NC(=O)CN)C(=O)N1Cc2ccccc2C[C@H]1C(=O)N1[C@H](C(=O)NCC(=O)N[C@@H](CCCCN)C(=O)N2Cc3ccccc3C[C@H]2C(=O)N2[C@H](C(=O)NCC(=O)N[C@@H](CC(C)C)C(=O)N3Cc4ccccc4C[C@H]3C(=O)N3[C@H](C(=O)NCC(=O)N[C@@H](CCCCN)C(=O)N4Cc5ccccc5C[C@H]4C(=O)N4[C@H](C(=O)NCC(=O)N[C@@H](CC(C)C)C(=O)N5Cc6ccccc6C[C@H]5C(=O)N5[C@H](C(=O)NCC(=O)N[C@@H](CCCCN)C(=O)N6Cc7ccccc7C[C@H]6C(=O)N6[C@H](C(=O)NCC(=O)N[C@@H](CCCCN)C(=O)N[C@@H](CCCNC(=N)N)C(N)=O)C[C@@H]7CCCC[C@@H]76)C[C@@H]6CCCC[C@@H]65)C[C@@H]5CCCC[C@@H]54)C[C@@H]4CCCC[C@@H]43)C[C@@H]3CCCC[C@@H]32)C[C@@H]2CCCC[C@@H]21 [WRFK-4, NH2-GKGL-Tic-Oic-GK-Tic-Oic-GL-Tic-Oic-GK-Tic-Oic-GL-Tic-Oic-GK-Tic-Oic-GKR-CONH2] (H-GKGL[Tic][Oic]GK[Tic][Oic]GL[Tic][Oic]GK[Tic][Oic]GL[Tic][Oic]GK[Tic][Oic]GKR-NH2)
IC50 * W2 [1]: 6.5 µg/mL (≈ 1.87 µM) | IC50 * D6 [2]: 7.8 µg/mL (≈ 2.25 µM) | p(MIC) Salmonella typhimurium [3]: 4.00 | MIC Salmonella typhimurium [3]: 0.1 mM (≈ 0.347 mg/mL) | p(MIC) Staphylococcus aureus ME/GM/TC resistant [4]: 5.00 | Actual Bioactivity [4]: 5.000 | % hemolysis / Hemolytic activity (red blood cells [8]; concentration not given): 100%

CC(C)C[C@H](NC(=O)CNC(=O)[C@H](CCCCN)NC(=O)CN)C(=O)N1Cc2ccccc2C[C@H]1C(=O)N1[C@H](C(=O)N[C@@H](Cc2ccccc2)C(=O)N[C@@H](CCCCN)C(=O)N2Cc3ccccc3C[C@H]2C(=O)N2[C@H](C(=O)N[C@@H](CCCCN)C(=O)N[C@@H](Cc3ccccc3)C(=O)N3Cc4ccccc4C[C@H]3C(=O)N3[C@H](C(=O)N[C@@H](Cc4ccccc4)C(=O)N[C@@H](CCCCN)C(=O)N4Cc5ccccc5C[C@H]4C(=O)N4[C@H](C(=O)N[C@@H](CCCCN)C(=O)N[C@@H](Cc5ccccc5)C(=O)N5Cc6ccccc6C[C@H]5C(=O)N5[C@H](C(=O)N[C@@H](Cc6ccccc6)C(=O)N[C@@H](CCCCN)C(=O)N6Cc7ccccc7C[C@H]6C(=O)N6[C@H](C(=O)N[C@@H](Cc7ccccc7)C(=O)N[C@@H](CCCCN)C(=O)N[C@@H](CCCNC(=N)N)C(N)=O)C[C@@H]7CCCC[C@@H]76)C[C@@H]6CCCC[C@@H]65)C[C@@H]5CCCC[C@@H]54)C[C@@H]4CCCC[C@@H]43)C[C@@H]3CCCC[C@@H]32)C[C@@H]2CCCC[C@@H]21 [WRFK-5, NH2-GKGL-Tic-Oic-FK-Tic-Oic-KF-Tic-Oic-FK-Tic-Oic-KF-Tic-Oic-FK-Tic-Oic-FKR-CONH2] (H-GKGL[Tic][Oic]FK[Tic][Oic]KF[Tic][Oic]FK[Tic][Oic]KF[Tic][Oic]FK[Tic][Oic]FKR-NH2)
IC50 * W2 [1]: 4.2 µg/mL (≈ 1.04 µM) | IC50 * D6 [2]: 3.9 µg/mL (≈ 0.965 µM) | p(MIC) Salmonella typhimurium [3]: 4.00 | MIC Salmonella typhimurium [3]: 0.1 mM (≈ 0.404 mg/mL) | p(MIC) Staphylococcus aureus ME/GM/TC resistant [4]: 4.52 | MIC Staphylococcus aureus ME/GM/TC resistant [4, 14]: 0.03 mM (≈ 0.121 mg/mL) | Minimum Inhibitory Concentration Staphylococcus aureus ME/GM/TC resistant [4]: 30 µM | Actual Bioactivity [4]: 4.520 | Actual Bioactivity [6]: 0.000 | MIC Mycobacterium ranae [6]: 1000 mM (≈ 4040 mg/mL) | Minimum Inhibitory Concentration Mycobacterium ranae [6]: not active | p(MIC) Bacillus Subtillis ([7]; -log(MIC)): 5.52 | MIC Bacillus Subtillis [7]: 0.003 mM (≈ 0.0121 mg/mL) | % hemolysis 100/25 μM (first value) (red blood cells [5]): 100%
